{
  "source": "paper PMC8457121",
  "about": "“From Kinase Inhibitors to Multitarget Ligands as Powerful Drug Leads for Alzheimer's Disease using Protein‐Templated Synthesis” (Angewandte Chemie (International Ed. in English), 2021)",
  "target": "BACE1 (Homo sapiens, UniProt P56817)",
  "sequence (P56817 46-501)": "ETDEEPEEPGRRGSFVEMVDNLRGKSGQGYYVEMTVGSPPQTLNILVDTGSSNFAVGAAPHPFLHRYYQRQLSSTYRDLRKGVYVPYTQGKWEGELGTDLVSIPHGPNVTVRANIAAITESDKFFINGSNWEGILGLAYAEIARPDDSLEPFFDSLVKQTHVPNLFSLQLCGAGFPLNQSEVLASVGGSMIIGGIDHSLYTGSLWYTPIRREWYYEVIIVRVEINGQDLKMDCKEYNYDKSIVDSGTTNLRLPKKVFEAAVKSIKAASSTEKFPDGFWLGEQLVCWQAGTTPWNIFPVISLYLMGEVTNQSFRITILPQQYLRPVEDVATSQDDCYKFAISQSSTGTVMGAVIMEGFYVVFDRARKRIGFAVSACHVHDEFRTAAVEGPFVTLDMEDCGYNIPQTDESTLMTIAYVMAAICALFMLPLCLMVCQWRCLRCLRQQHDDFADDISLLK",
  "assay": "Evaluation of BACE inhibitors kinetics (Lineweaver-Burk)",
  "assay_type": "biochemical",
  "details": "different concentrations of substrate and compound",
  "procedure": "enzyme concentration (1 U/mL). Inhibitor screening at 10 μM. The mixture was incubated for 60 min at 25 °C under dark conditions and then stopped with 2.5 M sodium acetate. Fluorescence was measured with a FLUOstar Optima (BMG\nLabtechnologies GmbH, Offenburg, Germany) microplate reader at 545 nm excitation and 585 nm emission.\nEvaluation of BACE Inhibitors Kinetics. To evaluate the mechanism of BACE1 inhibition of the compounds, substrate-dependent kinetic experiments were performed. BACE activity were measured at five different concentrations substrate (1000 -62,5 µM) in the absence or presence of the select inhibitor at two different concentrations. The results are presented as double reciprocal Lineweaver−Burk plots (1/V vs 1/[S]) Figure S1.\nCell culture and treatments. SK-N-MC cells stably expressing the human isoform APP695 (SK-APP cell line D1; SKAPP-D1) were generated by transfection of SK-N-MC cells with a pCDNA3-APP expression vector, and kindly provided by Dr. MJ Bullido. These cells were cultured in DMEM (Thermo Fisher) medium supplemented with 10% FBS (Thermo Fisher), 1 mM glutamine (Sigma-Aldrich), and 100 unit/ml penicillin (Lonza) and […] streptomycin (Lonza).\nCell cultures were maintained in a 5% CO2, humidified atmosphere at 37 °C. […]",
  "data": [
    {"smiles": "O=C(Nc1nc2ccccc2s1)c1ccc(Cn2cc(COc3ccc(C(=O)Nc4nc5ccccc5s4)cc3)nn2)cc1", "note": "[compound 8]", "values": [
      {"measurement": "Behavior in the inhibition of BACE1 (Lineweaver–Burk double reciprocal plot)", "result": "substrate‐competitive"}
    ]}
  ]
}
